From US6090801A, “Pharmaceutical compositions containing ceftriaxone and penems” (SmithKline Beecham p.l.c., priority 1993, dated 2000)

Columns and labels:
[1] = serum half-life; type: in vivo; conditions: in words; compared with ceftriaxone
[2] = tested on: Bacteroides fragilis; conditions: coadministration with tazobactam; J. Antimicrobial Chemotherapy (1993), 32, 307-312; cited from earlier work
[3] = tested on: various microorganisms; test: enhancement of antibacterial activity of ceftriaxone by compound of formula (I) (MIC data overall); type: cell-based; conditions: with 1 μg/ml compound of formula (I); from β-lactamase inhibitory effect
[4] = tested on: Bacteroides fragilis VP1 8908; test: MIC of ceftriaxone, alone and with compound of formula (I); type: cell-based
[5] = tested on: Enterobacter cloacae P99; test: as above; type: cell-based
[6] = tested on: Klebsiella pneumoniae 4; test: as above; type: cell-based
[7] = in vivo; cited from earlier work
[8] = ceftriaxone + 1 μg/1 ml of compound of Formula (I)

Row | serum half life [1] | SMILES | activity of ceftriaxone against anaerobes such as Bacteroides fragilis [2] | enhancement of antibacterial activity of ceftriaxone [3] | MIC ([4]; VP18908, ceftriaxone alone) | MIC + 1 μg/1 ml of compound of Formula (I) [4, 8] | MIC + 1 μg/1 ml of compound of Formula (I) ([5]; Enterobacter cloacae P99, ceftriaxone + 1 μg/1 ml of compound of Formula (I)) | MIC ([5]; Enterobacter cloacae, P99, read-out: MIC Ceftriaxone alone) | MIC + 1 μg/1 ml of compound of Formula (I) [6, 8] | MIC ([6]; ceftriaxone alone) | serum half-lives [7]
1 | more compatible with ceftriaxone | O=C([O-])C1=CS[C@@H]2/C(=C\c3cn4c(n3)SCC4)C(=O)N12.[Na+] (racemic) | – | – | – | – | – | – | – | – | –
2 | – | CO/N=C(\C(=O)N[C@@H]1C(=O)N2C(C(=O)O)=C(CSc3nc(=O)c(=O)[nH]n3C)CS[C@H]12)c1csc(N)n1 [Ceftriaxone, [6R-[6α,7β(Z)]]-7-[[(2-Amino4-thiazolyl)(methoxyimino)acetyl]amino]-8-oxo-3-[[(1,2,5,6-tetrahydro-2-methyl-5-6-dioxo-1,2,4-triazin-3-yl)thio]-methyl]-5-thia-1-azabicyclo[4-2-O]oct-2-ene-2-carboxylic acid] | enhanced by coadministration with the β-lactamaseinhibitor tazobactam | substantial enhancement of antibacterial activity | 128 µg/mL | 2 µg/mL | 0.5 µg/mL | 128 µg/mL | 0.5 µg/mL | 16 µg/mL | ca. 8 hours
3 | – | C[C@]1(Cn2ccnn2)[C@H](C(=O)O)N2C(=O)C[C@H]2S1(=O)=O [tazobactam] | – | – | – | – | – | – | – | – | ca. 1 hours
